Measurements published in US9617256B2 (priority 2007, dated 2017).
Converted amounts (≈) assume the structure as drawn.

What was measured:
AECO001 (ATCC25922) = assay: MIC broth microdilution, AECO001; type: cell-based, E. coli; conditions: Escherichia coli, ATCC25922, read-out: MIC AECO001
Method in brief: (§1)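 CLSI-guided microdilution: bacteria passaged overnight at 35° C. on Mueller-Hinton agar, tested in cation-adjusted broth at a final 3×10^5–7×10^5 CFU/mL across 2-fold drug dilutions, read after 18-24 h at 35° C.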

[1] = test system: AECO063 (ATCC25922 bearing an acrAB mutation); assay: microbe, parasite or virus in culture; type: cell-based, E. coli; conditions: Escherichia coli, ATCC25922, read-out: MIC AECO063
Method in brief: as §1

APAE001 (ATCC27853) = assay: MIC broth microdilution, APAE001; type: cell-based, P. aeruginosa; conditions: Pseudomonas aeruginosa, ATCC27853, read-out: MIC APAE001, APAE001 is ATCC27853
Method in brief: as §1

[2] = test system: APAE006 (strain of P. aeruginosa in which all efflux pumps are inactivated); assay: microbe, parasite or virus in culture; type: cell-based; conditions: Pseudomonas aeruginosa, read-out: MIC APAE006, P. aeruginosa, all efflux pumps inactivated
Method in brief: (§2)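 CLSI broth microdilution in cation-adjusted Mueller-Hinton broth, final inoculum 3×10^5–7×10^5 CFU/mL, 2-fold drug dilutions, 18-24 hours at 35° C. in ambient air. APAE006 is an efflux-pump-inactivated P. aeruginosa strain. Assay performance monitored with QC strains and levofloxacin.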

[3] = test system: APAE006 in the presence of 8 micrograms per milliliter of polymyxin B nonapeptide; type: cell-based, P. aeruginosa; conditions: in the presence of 8 micrograms per milliliter of polymyxin B nonapeptide
Method in brief: as §2

[4] = test system: AABA1060 (clinical isolate of Acinetobacter baumannii); assay: MIC broth microdilution, AABA1060; type: cell-based; conditions: Acinetobacter baumannii, read-out: MIC AABA1060
Method in brief: as §1

[5] = test system: ASAU001 (laboratory strain of S. aureus, ATCC29213); assay: MIC broth microdilution, ASAU001; type: cell-based; conditions: Staphylococcus aureus, ATCC29213, read-out: MIC ASAU001
Method in brief: as §1

AECO001 HSA AGP = assay: MIC broth microdilution, AECO001 HSA AGP; type: cell-based, E. coli; conditions: Escherichia coli
Method in brief: as §1

SMILES | MIC (AECO001 (ATCC25922)) [µg/mL] | MIC [1] [µg/mL] | MIC (APAE001 (ATCC27853)) [µg/mL] | MIC [2] [µg/mL] | MIC APAE006 + PMBN [3] | MIC [4] [µg/mL] | MIC [5] [µg/mL] | MIC (AECO001 HSA AGP) [µg/mL]
C[C@H](O)[C@H](NC(=O)c1ccc(/C=C/C#Cc2ccc(CN3CCOCC3)cc2)cc1)C(=O)NO [Example 110-5] | < 2 | < 2 | 2 to 16 (≈ 4.31 to 34.5 µM) | < 2 | A (MIC's of 2.0 μg/mL or less = A) | 2 to 16 (≈ 4.31 to 34.5 µM) | > 64 | 2 to 16 (≈ 4.31 to 34.5 µM)
C[C@@H](N)[C@H](NC(=O)c1ccc(C#CC#Cc2ccc(Cl)cc2)cc1)C(=O)NO [Example 82-8] | < 2 | < 2 | 16 to 64 (≈ 40.4 to 162 µM) | < 2 | A (MIC's of 2.0 μg/mL or less = A) | > 64 | > 64 | 2 to 16 (≈ 5.05 to 40.4 µM)
C[C@H](O)[C@H](NC(=O)c1ccc(/C=C/C#Cc2ccc(CNC3CC3)cc2)cc1)C(=O)NO [Example 113-4] | < 2 | < 2 | 2 to 16 (≈ 4.61 to 36.9 µM) | < 2 | A (MIC's of 2.0 μg/mL or less = A) | 2 to 16 (≈ 4.61 to 36.9 µM) | > 64 | 2 to 16 (≈ 4.61 to 36.9 µM)
NC[C@H](NC(=O)c1ccc(C#C/C=C/c2ccccc2)cc1)C(=O)NO [Example 104-2] | < 2 | < 2 | 2 to 16 (≈ 5.72 to 45.8 µM) | < 2 | A (MIC's of 2.0 μg/mL or less = A) | 16 to 64 (≈ 45.8 to 183 µM) | 16 to 64 (≈ 45.8 to 183 µM) | 2 to 16 (≈ 5.72 to 45.8 µM)
CC(C)(N)C(NC(=O)c1ccc(C#Cc2ccc(CNC3CC3)cc2)cc1)C(=O)NO (stereo not drawn) [Example 137-6] | < 2 | < 2 | < 2 | < 2 | A (MIC's of 2.0 μg/mL or less = A) | 2 to 16 (≈ 4.76 to 38 µM) | 16 to 64 (≈ 38 to 152 µM) | 2 to 16 (≈ 4.76 to 38 µM)
C[C@@H](O)[C@H](NC(=O)c1ccc(C#C/C=C/c2ccc(CN3CCOCC3)cc2)cc1)C(=O)NO [Example 96-1, N-((1S,2R)-2-Hydroxy-1-hydroxycarbamoyl-propyl)-4-[(E)-4-(4-morpholin-4-ylmethyl-phenyl)-but-3-en-1-ynyl]-benzamide] | < 2 | < 2 | 2 to 16 (≈ 4.31 to 34.5 µM) | < 2 | A (MIC's of 2.0 μg/mL or less = A) | 2 to 16 (≈ 4.31 to 34.5 µM) | > 64 | < 2
C[C@@H](O)[C@H](NC(=O)c1ccc(CCc2ccc(CN3CCOCC3)cc2)cc1)C(=O)NO [Example 137-8] | 2 to 16 (≈ 4.53 to 36.2 µM) | < 2 | 2 to 16 (≈ 4.53 to 36.2 µM) | < 2 | A (MIC's of 2.0 μg/mL or less = A) | 16 to 64 (≈ 36.2 to 145 µM) | 16 to 64 (≈ 36.2 to 145 µM) | 16 to 64 (≈ 36.2 to 145 µM)
C[C@@H](N)[C@H](NC(=O)c1ccc(C#Cc2ccc(CN(C)Cc3cccnc3)cc2)cc1)C(=O)NO [Example 115-5] | < 2 | < 2 | 2 to 16 (≈ 4.24 to 33.9 µM) | < 2 | A (MIC's of 2.0 μg/mL or less = A) | 2 to 16 (≈ 4.24 to 33.9 µM) | > 64 | 2 to 16 (≈ 4.24 to 33.9 µM)
C[C@@H](N)[C@H](NC(=O)c1ccc(C#C/C=C/c2ccc(CN3CCOCC3)cc2)cc1)C(=O)NO [Example 96-4] | < 2 | < 2 | 2 to 16 (≈ 4.32 to 34.6 µM) | < 2 | A (MIC's of 2.0 μg/mL or less = A) | 2 to 16 (≈ 4.32 to 34.6 µM) | > 64 | 2 to 16 (≈ 4.32 to 34.6 µM)
C[C@@H](N)[C@H](NC(=O)c1ccc(C#CC#CC2CCCC2)cc1)C(=O)NO [Example 91-3] | < 2 | < 2 | < 2 | < 2 | A (MIC's of 2.0 μg/mL or less = A) | 2 to 16 (≈ 5.66 to 45.3 µM) | 2 to 16 (≈ 5.66 to 45.3 µM) | 2 to 16 (≈ 5.66 to 45.3 µM)
C[C@@H](N)[C@H](NC(=O)c1ccc(C#Cc2ccncc2)cc1)C(=O)NO [Example 133-8] | 16 to 64 (≈ 47.3 to 189 µM) | 2 to 16 (≈ 5.91 to 47.3 µM) | 2 to 16 (≈ 5.91 to 47.3 µM) | < 2 | A (MIC's of 2.0 μg/mL or less = A) | 16 to 64 (≈ 47.3 to 189 µM) | > 64 | 16 to 64 (≈ 47.3 to 189 µM)
CCNCc1ccc(C#Cc2ccc(C(=O)N[C@H](C(=O)NO)[C@@H](C)N)cc2)cc1 [Example 119-6] | 2 to 16 (≈ 5.07 to 40.6 µM) | < 2 | < 2 | < 2 | A (MIC's of 2.0 μg/mL or less = A) | 16 to 64 (≈ 40.6 to 162 µM) | 16 to 64 (≈ 40.6 to 162 µM) | 2 to 16 (≈ 5.07 to 40.6 µM)
C[C@@H](O)[C@H](NC(=O)c1ccc(C=C(F)C#Cc2ccc(CN3CCOCC3)cc2)cc1)C(=O)NO [Example 109-1, 4-(2-fluoro-4-(4-(morpholinomethyl)phenyl)but-1-en-3-ynyl)-N-((2S,3R)-3-hydroxy-1-(hydroxyamino)-1-oxobutan-2-yl)benzamide] | < 2 | < 2 | 2 to 16 (≈ 4.15 to 33.2 µM) | < 2 | A (MIC's of 2.0 μg/mL or less = A) | 2 to 16 (≈ 4.15 to 33.2 µM) | > 64 | 2 to 16 (≈ 4.15 to 33.2 µM)
COC1CCN(Cc2ccc(C#Cc3ccc(C(=O)N[C@H](C(=O)NO)[C@@H](C)N)cc3)cc2)CC1 [Example 115-8] | < 2 | < 2 | < 2 | < 2 | A (MIC's of 2.0 μg/mL or less = A) | 2 to 16 (≈ 4.31 to 34.4 µM) | > 64 | 2 to 16 (≈ 4.31 to 34.4 µM)
C[C@@H](N)[C@H](NC(=O)c1ccc(C#Cc2ccc(CN3CCc4[nH]ncc4C3)cc2)cc1)C(=O)NO [Example 118-2] | < 2 | < 2 | < 2 | < 2 | A (MIC's of 2.0 μg/mL or less = A) | 2 to 16 (≈ 4.23 to 33.9 µM) | 16 to 64 (≈ 33.9 to 135 µM) | 16 to 64 (≈ 33.9 to 135 µM)
C[C@@H](O)[C@H](NC(=O)c1ccc(C#C/C=C/c2ccccc2)cc1)C(=O)NO [Example 104-1, N-((1S,2R)-2-Hydroxy-1-hydroxycarbamoyl-propyl)-4-((E)-4-phenyl-but-3-en-1-ynyl)-benzamide] | < 2 | < 2 | 2 to 16 (≈ 5.49 to 43.9 µM) | < 2 | A (MIC's of 2.0 μg/mL or less = A) | 2 to 16 (≈ 5.49 to 43.9 µM) | 16 to 64 (≈ 43.9 to 176 µM) | 2 to 16 (≈ 5.49 to 43.9 µM)
C[C@@H](N)[C@H](NC(=O)c1ccc(C#CC#Cc2ccccc2Cl)cc1)C(=O)NO [Example 82-10] | < 2 | < 2 | 2 to 16 (≈ 5.05 to 40.4 µM) | < 2 | A (MIC's of 2.0 μg/mL or less = A) | 2 to 16 (≈ 5.05 to 40.4 µM) | 2 to 16 (≈ 5.05 to 40.4 µM) | 2 to 16 (≈ 5.05 to 40.4 µM)
C[C@@H](N)[C@H](NC(=O)c1ccc(C#CC#CC2CC2)cc1)C(=O)NO [Example 91-2] | < 2 | < 2 | < 2 | < 2 | A (MIC's of 2.0 μg/mL or less = A) | < 2 | 2 to 16 (≈ 6.15 to 49.2 µM) | 2 to 16 (≈ 6.15 to 49.2 µM)
O=C(CNC1CC1)NC[C@H](NC(=O)c1ccc(C#C/C=C/c2ccc(CO)cc2)cc1)C(=O)NO [Example 103-1, N—[(S)-2-(2-cyclopropylamino-acetylamino)-1-hydroxycarbamoyl-ethyl]-4-[(E)-4-(4-hydroxymethyl-phenyl)-but-3-en-1-ynyl]-benzamide] | < 2 | < 2 | 2 to 16 (≈ 4.2 to 33.6 µM) | < 2 | A (MIC's of 2.0 μg/mL or less = A) | > 64 | > 64 | 2 to 16 (≈ 4.2 to 33.6 µM)
C[C@H](N)[C@H](NC(=O)c1ccc(C#Cc2ccccc2)cc1)C(=O)NO [Example 133-1, N-((1S,2S)-2-Amino-1-hydroxycarbamoyl-propyl)-4-phenylethynyl-benzamide] | < 2 | < 2 | < 2 | < 2 | A (MIC's of 2.0 μg/mL or less = A) | < 2 | 16 to 64 (≈ 47.4 to 190 µM) | 2 to 16 (≈ 5.93 to 47.4 µM)
C[C@@H](N)[C@H](NC(=O)c1ccc(C#Cc2ccc(CCO)cc2)cc1)C(=O)NO [Example 120-3] | < 2 | < 2 | < 2 | < 2 | A (MIC's of 2.0 μg/mL or less = A) | 2 to 16 (≈ 5.24 to 41.9 µM) | > 64 | 2 to 16 (≈ 5.24 to 41.9 µM)
